Laboratory results published in patent US8859235B2, “Methods in cell cultures, and related inventions, employing certain additives” (priority 2009, dated 2014).

Tests used:
E. coli JM109 = assay: Growth and GFP expression in high cell density fedbatch cultivation of E. coli JM109 in mineral medium; format: cell-based, Escherichia coli; details: for Optical density Value / GFP expression (RFU/OD600) Value: additive 5 mM
Procedure: (§1) The measurement of GFP expression by whole cell fluorescence measurements follows the procedure of Scholz et al. (Eur. J. Biochem., 2000,267, 1565-1570). Frozen cell pellets are thawed, resuspended in 1 mL PBS [NaCl (8 g/L), KCl (0.2), of Na2HPO4 (1.44), KH2PO4 (0.24), adjusted to pH 7.4] and subsequently diluted to an optical density of 0.1. GFP fluorescence of whole cells is measured in a Eclipse Fluorometer (Varian) with an excitation wavelength of 400 nm and an emission wavelength of 512 nm. Specific relative fluorescence [RFU/OD600] is calculated by dividing the relative fluorescence emmision units by the optical density of the suspension at 600 nm.
A first preculture of E. coli JM109 harboring the plasmid pBAD-GFPuv is initiated from glycerol stocks stored at −80° C. in 3 mL of LB medium containing 0.01% (v/v) Antifoam A (Fluka). After growth for 10-12 h it is used to seed 2×100 mL of mineral medium (as described in Example 1) containing 0.01% Antifoam A (silicone fluid containing a suspension of finely powdered silica to enhance its defoaming efficiency; Dow Corning Corporation, Midland, Mich., USA), in 1 L baffled shake flasks. After 10-12 h this culture is centrifuged resuspended in 50 mL mineral medium and is used to inoculate the main culture.
(§2) Cultivation is performed in BioFlow110 bioreactors (Total volume 2.2 L; New Brunswick Scientific, Nürtingen, Germany) filled with 1 L of mineral medium plus 0.01% (v/v) Antifoam A for the batch phase. Reactors are equipped with pH, pO2 and foam probes, mass flow controllers to control gas flow and ratio of air and pure oxygen and pumps for automated dosage of base (14% [v/v] aqueous NH3), antifoam (25% [v/v] Antifoam A) and nutrient feed solution. The agitation is set to 500 rpm and air is supplied at a gas flow rate of 2 L/min. The fedbatch culture is incoculated to an OD600 of 0.25-0.5 and allowed to grow unlimited with a specific growth rate of ˜0.5 h^−1. Growth is monitored by measuring OD600. When the disolved oxygen concentration decreases to 30%, automated adjustment of the air:oxygen ratio in the gas mix is started to control dO2 to 30% using a PID loop. When the gas mix consisted of 100% oxygen a further increase in oxygen transfer is achieved through increasing the agitation rate up to a maximum level of 1200 rpm. When glycerol in the batch medium is completely consumed, as indicated by a distinct drop of pure oxygen in the gas mix, feeding solutions (first containing 70 g/L glycerol and later as cell density increased 200 g/L glycerol in mineral medium) are pumped into the reactor by a predefined exponential fed scheme. The feeding rate is calculated to allow the cells to grow at a growth rate of approximately 0.15 h^−1. During the feeding phase dO2 is also kept at 30%. 3-6 h after starting the feeding protein expression is induced by the addition of 0.2 (w/v) L-arabinose. Samples are taken every hour for OD600 reading and to obtain cell pellets which are stored at −20° C. for further analysis. Analysis of in vivo GFP fluorescence is performed by the method described in Example 1.

E. coli BL21 = assay: Time course of growth and GFP expression in E. coli BL21 in high cell density fed-batch cultivation in mineral medium; format: cell-based, Escherichia coli; details: for RFU/OD / OD: additive 5 mM; for OD Factor / RFU/OD Factor: additive vs control
Procedure: as §1
E. coli BL21 [Novagen, Madison, USA; Genotype: E ompT hsdSB (rB^− mB^−) gal dcm (DE3)] harboring the plasmid pET28a-GFPuv was constructed as detailed in Example 2. A first preculture is initiated from glycerol stocks stored at −80° C. in 3 mL of LB medium containing 0.01% (v/v) Antifoam A (Fluke). After growth for 10-12 h it is used to seed 2×100 mL of mineral medium (as described in Example 1) containing 0.01% Antifoam A (silicone fluid containing a suspension of finely powdered silica to enhance its defoaming efficiency; Dow Corning Corporation, Midland, Mich., USA), in 1 L baffled shake flasks. After 10-12 h this culture is centrifuged, resuspended in 50 mL mineral medium and is used to inoculate the main culture.
as §2, with “inoculated” for “incoculated”, “dissolved” for “disolved”

[1] = Experiment 1, process time 26.75 h, relative to control = 1
[2] = cultivation time 16.5 h, 2.5 h after induction
[3] = cultivation time 20.8 h, 6.0 h after induction
[4] = cultivation time 32.5 h, 18 h after induction

SMILES: CC1(C)CC(O)CC(C)(C)N1[O] [4-Hydroxy-2,2,6,6-tetramethylpiperidin-1-oxyl]
- Optical density Value (E. coli JM109; Experiment 1, process time 26.75 h, control 9.86): 11.86
- GFP expression (RFU/OD600) Value (E. coli JM109; Experiment 1, process time 26.75 h, control 211): 535 RFU/OD600
- GFP expression Factor (E. coli JM109; [1]): 2.53
- Optical density Factor (E. coli JM109; [1]): 1.20
- GFP expression (RFU/OD600) Value (E. coli JM109; Experiment 2, process time 18 h, control 0): 190 RFU/OD600
- Optical density Value (E. coli JM109; Experiment 2, process time 18 h, control 6.67): 11.42
- Optical density Factor (E. coli JM109; Experiment 2, process time 18 h, relative to control = 1): 1.7
- RFU/OD (E. coli BL21; cultivation time 16.5 h, 2.5 h after induction, control 9.1): 107.9 RFU/OD
- OD (E. coli BL21; cultivation time 16.5 h, 2.5 h after induction, control 30.11): 43.57 OD
- OD Factor (E. coli BL21; [2]): 1.45
- RFU/OD Factor (E. coli BL21; [2]): 11.86
- OD (E. coli BL21; cultivation time 20.8 h, 6.0 h after induction, control 48.46): 68.52 OD
- RFU/OD (E. coli BL21; cultivation time 20.8 h, 6.0 h after induction, control 264.7): 678.8 RFU/OD
- OD Factor (E. coli BL21; [3]): 1.41
- RFU/OD Factor (E. coli BL21; [3]): 2.56
- OD (E. coli BL21; cultivation time 32.5 h, 18 h after induction, control 83.39): 94.75 OD
- RFU/OD (E. coli BL21; cultivation time 32.5 h, 18 h after induction, control 486.5): 873 RFU/OD
- OD Factor (E. coli BL21; [4]): 1.14
- RFU/OD Factor (E. coli BL21; [4]): 1.79
